Measured values as given in publication PMC12421899, “Structural and molecular basis for phosphate recognition by SAR11 bacteria” (mBio, 2025).
Read-outs that look alike come from different tables or passages of the source.

Tests used:
CpPstS = experiment: MST-binding assay of CpPstS; design: species or system Candidatus Pelagibacter sp. HTCC7211; details: 25°C
Description: To analyze the binding affinity of CpPstS to phosphate, the microscale thermophoresis (MST)-binding assay was performed using the Monolith NT.115 instrument (NanoTemper Technologies GmbH). Based on previous studies showing that SAR11_1179 has a high binding affinity to phosphate ([33]), we purified the CpPstS protein under denaturing conditions and refolded it for the MST assay. […]. The high-affinity phosphate-binding affinity of CpPstS is consistent with that previously reported for SAR11_1179 ([33]). To further investigate the molecular mechanism underlying the high-affinity phosphate binding of CpPstS, we subsequently conducted structural biology studies on CpPstS.
Previous studies have shown that PstSCAB specifically transports inorganic phosphate ([10], [41], [42]). […] We therefore speculate that the larger substrate-binding cavity of CpPstS may allow it to bind to both phosphate and larger organic phosphorus compounds. To test this hypothesis, we conducted an MST-binding assay. […] […].
Using primers CppstS-F/CppstS-R, the CppstS gene was PCR amplified from the Candidatus Pelagibacter sp. HTCC7211 strain and inserted into the NdeI/XhoI restriction sites of the pET-22b vector containing a C-terminal His-tag (Table S3). The CpPstS and the selenomethionine (SeMet) derivative of CpPstS were expressed in E. coli BL21(DE3) cells under different culture conditions. For CpPstS protein expression for MST-binding assay, cells were cultured at 37°C in LB medium supplemented with 100 µg/mL ampicillin to an OD600 of 0.8–1.0, and induction was initiated with 0.35 mM isopropyl-β-D-thiogalactopyranoside (IPTG) at 15°C for 16 hours. For SeMet-CpPstS protein expression for crystallization, the SeMet-CpPstS protein was overexpressed in E. coli BL21(DE3) using M9 minimal medium supplemented with selenomethionine, lysine, leucine, valine, isoleucine, threonine, and phenylalanine ([50]). The overexpression was induced with 0.35 mM IPTG at 15°C for 16 hours. The purification of CpPstS for MST-binding assay was under denaturing conditions, cultured E. coli BL21(DE3) cells were collected by centrifugation, resuspended in lysis buffer (40 mM Tris-HCl [pH 8.0], 200 mM NaCl, 5% [vol/vol] glycerol, 2 mM EDTA, and 0.1 mM phenylmethanesulfonyl fluoride), and fractured by pressure crusher (JNBIO, China). The CpPstS protein was first purified by affinity chromatography on a Ni^2+-NTA column (Qiagen, Germany), washed with denaturing Ni binding buffer (8 M urea, 20 mM Tris, 250 mM NaCl, and 20 mM imidazole, pH 8.0) and eluted with denaturing Ni elution buffer (8 M urea, 20 mM Tris, 250 mM NaCl, and 250 mM imidazole, pH 8.0). […]
MST technology was used to quantify the binding affinities of NaH₂PO₄, Mpn, Glycerol-3P, and Glucose-6P to CpPstS. […]

[1] = biological target: Synechococcus sp. WH8102 PstS2; details: read-out: Kd of PstS2 for phosphate; cited from earlier work
[2] = biological target: Synechococcus sp. WH8102 PstS1b; details: read-out: Kd of PstS1b for phosphate; cited from earlier work
[3] = biological target: Synechococcus sp. WH8102 PstS1a; details: read-out: Kd of PstS1a for phosphate; cited from earlier work
[4] = 40 mM MES pH 7.2, 0.005% Tween-20, read-out: Kd of CpPstS for organic phosphorus compounds

`O=P(O)(O)OCC(O)CO` (stereo not shown) [glycerol-3-phosphate] gave a Kd (CpPstS; [4]) of 105 ± 44.6 µM.

`O=C[C@H](O)[C@@H](O)[C@H](O)[C@H](O)COP(=O)(O)O` [glucose-6-phosphate] showed a Kd (CpPstS; [4]) of 668 ± 253 µM.

For phosphate, the Kd [1] is listed as 4.3 µM, the Kd [2] is listed as 0.44 µM and the Kd [3] is listed as 3.3 µM. The Kd (CpPstS; refolded CpPstS, 40 mM MES pH 7.2, 0.005% Tween-20, NaH2PO4 titrated from 1.53 nM to 50 µM, listed as NaH2PO4, read-out: Kd (dissociation constant) of CpPstS for phosphate) was 0.112 ± 0.0805 µM and the Kd (CpPstS; refolded CpPstS, 40 mM MES pH 7.2, 0.005% Tween-20, NaH2PO4 titrated from 1.53 nM to 50 µM, read-out: Kd (dissociation constant) of CpPstS for phosphate) was 0.112 µM.
